Source: PubChem BioAssay (NCI)
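All cell lines were grown in 96-well plates and treated with compound for 48 hours. Here, GI50 denotes the concentration required for 50% inhibition of growth. TGI: concentration producing complete growth inhibition.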

How the values were obtained:
Experiment in all cases: growth of human tumour cells (NCI), 48 h
[1] = test system: SW-620 colon
[2] = test system: HCT-15 colon
[3] = test system: TK-10 renal
[4] = test system: COLO 205 colon
[5] = test system: HT29 colon
[6] = test system: RPMI-8226 leukemia
[7] = test system: CAKI-1 renal
[8] = test system: HS 578T breast

Compound: OCc1ccc(-c2nc(-c3ccc4c(c3)OCO4)c(-c3ccccn3)[nH]2)cc1
- GI50 [1]: > 25 µM
- TGI [1]: > 25 µM
- GI50 [2]: 15.1 µM
- TGI [2]: > 25 µM
- GI50 [3]: > 25 µM
- TGI [3]: > 25 µM
- GI50 [4]: > 25 µM
- TGI [4]: > 25 µM
- GI50 [5]: > 25 µM
- TGI [5]: > 25 µM
- GI50 [6]: 15.9 µM
- TGI [6]: > 25 µM
- GI50 [7]: 11.4 µM
- TGI [7]: > 25 µM
- GI50 [8]: > 25 µM
- TGI [8]: > 25 µM

Compound: CC(C)(C)c1cc(C[P+](c2ccccc2)(c2ccccc2)c2ccccc2)cc(C(C)(C)C)c1O
- GI50 [1]: 0.528 µM
- TGI [1]: 12 µM
- GI50 [2]: 2.39 µM
- TGI [2]: 11.9 µM
- GI50 [3]: 0.486 µM
- TGI [3]: 3.25 µM
- GI50 [4]: 0.199 µM
- TGI [4]: 0.521 µM
- GI50 [5]: 0.184 µM
- TGI [5]: 1.65 µM
- GI50 [6]: 0.178 µM
- TGI [6]: 0.627 µM
- GI50 [7]: 2.64 µM
- TGI [7]: 8.7 µM
- GI50 [8]: 0.51 µM
- TGI [8]: 17.1 µM

Compound: CCOC(=O)c1c(NN2CCN(CC(F)(F)F)CC2)oc(/C=C2\C=Nc3ncccc32)c1O
- GI50 [1]: 0.808 µM
- TGI [1]: 22.9 µM
- GI50 [2]: 6.59 µM
- TGI [2]: 46.7 µM
- GI50 [3]: 3.37 µM
- TGI [3]: 24 µM
- GI50 [4]: 0.76 µM
- TGI [4]: 11.1 µM
- GI50 [5]: 2.47 µM
- TGI [5]: 17.1 µM
- GI50 [6]: 4.25 µM
- TGI [6]: 20.7 µM
- GI50 [7]: 1.08 µM
- TGI [7]: 13.5 µM
- GI50 [8]: 0.913 µM
- TGI [8]: 6.72 µM

Compound: Nc1nc(Sc2ccc([N+](=O)[O-])c3nonc23)c2ncn(C3OC(CO)C(O)C3O)c2n1 (configuration not stated)
- GI50 [1]: 1.12 µM
- TGI [1]: > 35 µM
- GI50 [2]: 0.587 µM
- TGI [2]: 11.9 µM
- GI50 [3]: 2.42 µM
- TGI [3]: > 37.2 µM
- GI50 [4]: 2.59 µM
- TGI [4]: 14.4 µM
- GI50 [5]: 0.846 µM
- TGI [5]: 16.2 µM
- GI50 [6]: 0.278 µM
- TGI [6]: 15.2 µM
- GI50 [7]: 0.669 µM
- TGI [7]: > 100 µM
- GI50 [8]: 7.89 µM
- TGI [8]: 46.3 µM

Compound: CCn1nc(C2CCN(C(=O)CCO)CC2)nc1-c1cnc(N)c(-c2nnc(C(C)(C)C)o2)n1
- GI50 [1]: 18.3 µM
- TGI [1]: > 100 µM
- GI50 [2]: 6.17 µM
- TGI [2]: > 100 µM
- GI50 [3]: 1.95 µM
- TGI [3]: > 100 µM
- GI50 [4]: 2.85 µM
- TGI [4]: 21.5 µM
- GI50 [5]: 0.63 µM
- TGI [5]: 22 µM
- GI50 [6]: 28 µM
- TGI [6]: > 76.7 µM
- GI50 [7]: 3.35 µM
- TGI [7]: > 96.6 µM
- GI50 [8]: 0.836 µM
- TGI [8]: 57 µM

Compound: COc1cc(OC)c(C(=O)/C=C/c2ccc(C#N)cc2)c(OC)c1
- GI50 [1]: 1.84 µM
- TGI [1]: 7.22 µM
- GI50 [2]: 1.05 µM
- TGI [2]: 4.19 µM
- GI50 [3]: 1.71 µM
- TGI [3]: 24 µM
- GI50 [4]: 1.82 µM
- TGI [4]: 7.38 µM
- GI50 [5]: 1.88 µM
- TGI [5]: 8.28 µM
- GI50 [6]: 1.29 µM
- TGI [6]: 4.92 µM
- GI50 [7]: 1.73 µM
- TGI [7]: 8.78 µM
- GI50 [8]: 1.93 µM
- TGI [8]: > 50 µM

Compound: O=C(Nc1ccc(I)cc1F)c1cc(Br)ccc1O
- GI50 [1]: 0.849 µM
- TGI [1]: 9.47 µM
- GI50 [2]: 0.743 µM
- TGI [2]: 6.72 µM
- GI50 [3]: 1.62 µM
- TGI [3]: 9.3 µM
- GI50 [4]: 3.83 µM
- TGI [4]: 13.4 µM
- GI50 [5]: 3.29 µM
- TGI [5]: > 35.1 µM
- GI50 [6]: 0.321 µM
- TGI [6]: 1.63 µM
- GI50 [7]: 0.308 µM
- TGI [7]: 2.34 µM
- GI50 [8]: 0.346 µM
- TGI [8]: 2.62 µM
